# Measured values reported in patent US20240315985A1 (Dermavant Sciences GmbH, priority 2021, published 2024).
# How the values were obtained:
# [1] = test system: plaque psoriasis in adults; assay: Physician Global Assessment (PGA), long-term open-label extension study (PSOARING 3) of tapinarof cream, 1%; format: in vivo, human
# Description: This extension study consisted of up to 40 weeks of treatment and a 4 week, safety follow up period.
# The PGA was used to assess the primary efficacy endpoint in this study. The PGA is a clinical tool for assessing the current state/severity of a subject's psoriasis at a given time point. It is a static, 5 point, morphological assessment of overall disease severity, as determined by the Investigator, using the clinical characteristics of erythema, scaling, and plaque thickness/elevation as guidelines; higher PGA scores represent more severe disease (0=clear, 1=almost clear, 2=mild, 3=moderate, and 4=severe). The BSA affected was not considered in scoring of the PGA. Variations of the PGA are frequently used in clinical studies because it is a simple assessment, similar to those used in clinical practice. The PGA was performed first, prior to the % BSA, PASI, and LTS assessments.
# Time to event parameters, such as the time from treatment success to subsequent worsening (PGA≥2) or duration of treatment episode, were summarized by the Kaplan Meier product limit method using OC.
# [2] = Preclinical repeat dosing study, systemic exposure; format: in vivo; settings: CYP1A1/2 induced in skin or liver
# Description: The reason for the decrease in plasma concentrations over time is unknown. Without wishing to be bound by theory, as the skin heals, there may be less penetration of the drug through the stratum corneum and into the systemic circulation since the barrier is restored.
# [3] = test system: psoriasis; assay: 12-week phase 2b trial in psoriasis, maintenance after treatment cessation; format: in vivo, human
# Description: As mentioned, tapinarof is a novel therapeutic aryl hydrocarbon receptor modulating agent (TAMA) in clinical development for the topical treatment of psoriasis and atopic dermatitis. […] AhR modulates T cell responses both through intrinsic control of T cell subset differentiation and via controlling the function of antigen presenting cells. In addition, AhR signaling promotes the conversion of Th17 cells to type 1 regulatory T cells. Aberrant immune responses underpin the pathogenesis of both PsO and AD, and the wide expression of AhR in immune cells makes it an attractive target given the essential role of AhR in regulating inflammatory responses and skin homeostasis. […] These clinical data support the role of AhR in skin immune homeostasis. Given the multitude of AhR-dependent immunoregulatory mechanisms, AhR is an attractive target for novel immunotherapies with the potential to extend therapeutic efficacy following treatment discontinuation; this may provide a unique clinical benefit to patients.
# [4] = Plasma concentrations, maximal use study with serial PK sampling; format: in vivo, human; settings: between Days 1 and 29
# Description: This unique PK profile is characterized by the highest plasma concentrations being observed on the first day or week of the treatment period followed by a subsequent decline to undetectable or near undetectable levels in the plasma after multiple weeks of dosing.
# (FIG. 2). This decline is further supported by serial PK data collected from previous clinical studies over 28 days of dosing and over 21 days of dosing.
# [5] = test system: plaque psoriasis in adults; assay: Safety: adverse events (AEs, TEAEs, AESIs, SAEs), extension study; format: in vivo, human
# Description: Endpoints: Incidence, frequency, and nature of AEs, adverse events of special interest (AESIs), and serious adverse events (SAEs), Change over time in clinical laboratory tests and frequency of clinically significant abnormal test results, Change over time in vital signs and frequency of clinically significant abnormal results, Local Tolerability Scale (LTS) scores by severity summarized by visit.
# Safety assessments included AEs, AESIs, SAEs, local (application site) tolerability, clinical laboratory tests, vital signs, physical examinations, and Investigator assessed LTS. Efficacy assessments included a 5 point static PGA (0 [clear], 1 [almost clear], 2 [mild], 3 [moderate], 4 [severe]), % BSA affected, the PASI, and subject reported DLQI.
structure (smiles),measurement,setting,value
"CC(C)c1c(O)cc(/C=C/c2ccccc2)cc1O [tapinarof, 3,5-Dihydroxy-4-isopropyl-trans-stilbene]","Durability of Response, No. of Subjects","[1]; Vehicle→Tapinarof, Wk. 0",22
same,Remittive effect off therapy,[1]; patients with complete disease clearance (PGA=0),approximately 4 months
same,Change in systemic exposures with repeat dosing compared to single doses,[2]; minipigs,no changes in systemic exposures
same,Change in systemic exposures with repeat dosing compared to single doses,[2]; rats,no changes in systemic exposures
same,Time efficacy was maintained after treatment cessation,[3],four
same,Decline in plasma concentrations of tapinarof,[4],10 fold
same,"Study discontinuation due to AESI: Dermatitis contact, Patients, %",[5]; Overall (n = 763),(1.4) %
same,"Study discontinuation due to AESI: Folliculitis, Patients, %",[5]; Overall (n = 763),(1.2) %
same,"Study discontinuation due to TEAEs, Patients, %",[5]; Overall (n = 763),(5.4) %
same,"Treatment-emergent AESI: Dermatitis contact, Patients, %",[5]; Overall (n = 763),(5.9) %
same,"Treatment-emergent AESI: Folliculitis, Patients, %",[5]; Overall (n = 763),(24.0) %
same,"Treatment-emergent AESI: Headache, Patients, %",[5]; Overall (n = 763),(2.0) %
same,"Study discontinuation due to AESI: Dermatitis contact, Patients, %",[5]; Tapinarof→Tapinarof (n = 508),(1.4) %
same,"Study discontinuation due to AESI: Folliculitis, Patients, %",[5]; Tapinarof→Tapinarof (n = 508),(1.2) %
same,"Study discontinuation due to TEAEs, Patients, %",[5]; Tapinarof→Tapinarof (n = 508),(5.1) %
same,"Treatment-emergent AESI: Dermatitis contact, Patients, %",[5]; Tapinarof→Tapinarof (n = 508),(4.7) %
same,"Treatment-emergent AESI: Folliculitis, Patients, %",[5]; Tapinarof→Tapinarof (n = 508),(24.4) %
same,"Treatment-emergent AESI: Headache, Patients, %",[5]; Tapinarof→Tapinarof (n = 508),(2.0) %
same,"Study discontinuation due to AESI: Dermatitis contact, Patients, %",[5]; Vehicle→Tapinarof (n = 255),(1.6) %
same,"Study discontinuation due to AESI: Folliculitis, Patients, %",[5]; Vehicle→Tapinarof (n = 255),(1.2) %
same,"Study discontinuation due to TEAEs, Patients, %",[5]; Vehicle→Tapinarof (n = 255),(5.9) %
same,"Treatment-emergent AESI: Dermatitis contact, Patients, %",[5]; Vehicle→Tapinarof (n = 255),(8.2) %
same,"Treatment-emergent AESI: Folliculitis, Patients, %",[5]; Vehicle→Tapinarof (n = 255),(23.1) %
same,"Treatment-emergent AESI: Headache, Patients, %",[5]; Vehicle→Tapinarof (n = 255),(2.0) %
